Molecular target: C-Raf FL (full length CRAF with Y340E and Y341E activating mutations, co-expressed with h14-3-3 zeta) (Homo sapiens (Human), UniProt P04049, Y340E/Y341E)
Assay: In vitro Raf activity determination, AlphaScreen p-MEK readout, c-Raf (C-Raf FL)
Type: biochemical
Settings: c-Raf approximately 4 nM, ATP 1 μM, pre-incubation 60 minutes, reaction 1 hour
Procedure, shortened: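 Phosphorylation of kinase-dead biotinylated MEK1 (~10 nM) by C-Raf FL (~4 nM) read by AlphaScreen luminescence with anti-phospho-MEK1/2 after EDTA stop. ATP was 1 μM, with a 1 h reaction at room temperature. Compounds were pre-incubated with enzyme and substrate for 60 min in Tris/MgCl2 buffer, pH 7.5.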

Sequence of C-Raf FL (full length CRAF with Y340E and Y341E activating mutations, co-expressed with h14-3-3 zeta) (P04049 whole entry Y340E/Y341E): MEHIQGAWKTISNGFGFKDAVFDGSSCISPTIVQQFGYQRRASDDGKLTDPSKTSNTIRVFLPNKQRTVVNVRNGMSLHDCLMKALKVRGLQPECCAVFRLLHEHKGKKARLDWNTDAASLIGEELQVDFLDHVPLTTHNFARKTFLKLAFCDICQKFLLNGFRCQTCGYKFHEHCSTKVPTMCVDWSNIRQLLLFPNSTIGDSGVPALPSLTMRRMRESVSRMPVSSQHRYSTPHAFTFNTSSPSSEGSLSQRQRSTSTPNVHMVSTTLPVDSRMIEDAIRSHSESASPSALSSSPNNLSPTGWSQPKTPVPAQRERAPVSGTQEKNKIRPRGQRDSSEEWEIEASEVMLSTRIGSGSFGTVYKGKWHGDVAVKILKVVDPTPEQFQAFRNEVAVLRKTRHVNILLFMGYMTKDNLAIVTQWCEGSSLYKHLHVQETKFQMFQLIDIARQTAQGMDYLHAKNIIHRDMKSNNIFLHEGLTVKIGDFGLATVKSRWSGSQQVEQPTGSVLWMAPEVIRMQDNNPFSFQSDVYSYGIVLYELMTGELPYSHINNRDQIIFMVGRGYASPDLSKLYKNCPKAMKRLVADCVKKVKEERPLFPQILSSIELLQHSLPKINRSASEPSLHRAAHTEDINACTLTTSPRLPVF
Sequence of C-Raf FL (full length CRAF with Y340E and Y341E activating mutations, co-expressed with h14-3-3 zeta) (P63104 whole entry partner): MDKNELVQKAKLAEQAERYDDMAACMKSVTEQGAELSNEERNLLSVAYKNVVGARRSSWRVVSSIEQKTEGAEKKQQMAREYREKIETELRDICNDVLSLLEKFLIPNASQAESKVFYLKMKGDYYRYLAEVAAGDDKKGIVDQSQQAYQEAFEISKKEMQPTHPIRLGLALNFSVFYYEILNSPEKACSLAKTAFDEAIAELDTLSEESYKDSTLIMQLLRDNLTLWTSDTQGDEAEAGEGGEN

| Structure (SMILES) | IC50 [nM] |
| --- | --- |
| CCN1C(=O)O[C@H]2COCC[C@@H]2c2cc(-c3cc(NC(=O)c4ccnc(C(F)(F)F)c4F)ccc3C)cnc21 [Example 304, N-(3-((4aR, 11bR)-7-ethyl-6-oxo-2,4,4a,6,7,11b-hexahydro-1H-pyrano[4,3-f]pyrido[2,3-d][1,3]oxazepin-10-yl)-4-methylphenyl)-3-fluoro-2-(trifluoromethyl) isonicotinamide] | 0.5 |
| CCN1C(=O)O[C@H]2COCC[C@@H]2c2cc(-c3cc(NC(=O)c4ccnc(C(F)(F)F)c4)ccc3C)cnc21 [Example 305, N-(3-((4aR,11bR)-7-ethyl-6-oxo-2,4,4a,6,7,11b-hexahydro-1H-pyrano[4,3-f]pyrido[2,3-d][1,3]oxazepin-10-yl)-4-methylphenyl)-2-(trifluoromethyl) isonicotinamide] | 0.3 |
| Cc1ccc(NC(=O)c2cncc(C(F)(F)F)c2)cc1-c1cnc2c(c1)[C@@H]1CCOC[C@H]1C(=O)N2CCO [Example 306, N-(3-((4aS,10bR)-6-(2-hydroxyethyl)-5-oxo-2,4,4a,5,6,10b-hexahydro-1H-pyrano[3,4-c][1,8]naphthyridin-9-yl)-4-methylphenyl)-5-(trifluoromethyl) nicotinamide] | 0.1 |
| Cc1ccc(NC(=O)c2ccnc(C(F)(F)F)c2F)cc1-c1cnc2c(c1)[C@@H]1CCOC[C@H]1C(=O)N2CCO [Example 307, 3-fluoro-N-(3 - ((4aS, 10bR)-6-(2-hydroxyethyl)-5-oxo-2,4,4a,5,6,10b-hexahydro-1H-pyrano[3,4-c][1,8]naphthyridin-9-yl)-4-methylphenyl)-2-(trifluoromethyl) isonicotinamide] | 0.1 |
| CCN1C(=O)[C@H]2COCC[C@@H]2c2cc(-c3cc(NC(=O)c4cccc(C(F)(F)F)c4)cnc3C)cnc21 [Example 309, N-(5-((4aR, 10bS)-6-ethyl-5-oxo-1,4,4a,5,6,10b-hexahydro-2H-pyrano[3,4 - c][1,8]naphthyridin-9-yl)-6-methylpyridin-3-yl)-3-(trifluoromethyl) benzamide] | 0.3 |
| CCN1C(=O)[C@H]2COCC[C@@H]2c2cc(-c3cc(NC(=O)c4ccnc(C(C)(C)F)c4)cnc3C)cnc21 [Example 310, N-(5-((4aR, 10bS)-6-ethyl-5-oxo-1,4,4a,5,6,10b-hexahydro-2H-pyrano[3,4-c][1,8]naphthyridin-9-yl)-6-methylpyridin-3-yl)-2-(2-fluoropropan-2-yl)isonicotinamide] | 0.1 |
| CCN1C(=O)[C@@H]2COCC[C@H]2c2cc(-c3cc(NC(=O)c4ccnc(C(F)(F)F)c4)ccc3C)cnc21 [Example 311, N-(3-((4aS, 10bR)-6-ethyl-5-oxo-1,4,4a,5,6,10b-hexahydro-2H-pyrano[3,4 - c][1,8]naphthyridin-9-yl)-4-methylphenyl)-2-(trifluoromethyl) isonicotinamide] | 0.1 |
| CCN1C(=O)[C@@H]2COCC[C@H]2c2cc(-c3cc(NC(=O)c4cccc(C(F)(F)F)c4)cnc3C)cnc21 [Example 312, N-(5-((4aS, 10bR)-6-ethyl-5-oxo-1,4,4a,5,6,10b-hexahydro-2H-pyrano[3,4-c][1,8]naphthyridin-9-yl)-6-methylpyridin-3-yl)-3-(trifluoromethyl) benzamide] | 0.1 |
| CCN1C(=O)[C@@H]2COCC[C@H]2c2cc(-c3cc(NC(=O)c4ccnc(C(C)(C)F)c4)cnc3C)cnc21 [Example 313, N-(5-((4aS, 10bR)-6-ethyl-5-oxo-1,4,4a,5,6,10b-hexahydro-2H-pyrano[3,4-c][1,8]naphthyridin-9-yl)-6-methylpyridin-3-yl)-2-(2-fluoropropan-2-yl)isonicotinamide] | 0.5 |
| CCN1C(=O)CC2CCOCCN2c2cc(-c3cc(NC(=O)c4ccnc(C(F)(F)F)c4)ccc3C)cnc21 (stereo not drawn) [Example 314, N-(3-(8-ethyl-7-oxo-1,2,4,5,5a,6,7,8-octahydropyrido[3′, 2′:2,3][1,4]diazepino [1,7-d][1,4]oxazepin-11-yl)-4-methylphenyl)-2-(trifluoromethyl) isonicotinamide] | 0.6 |
| CCN1C(=O)CC2CCOCCN2c2cc(-c3cc(NC(=O)c4cccc(C(F)(F)F)c4)cnc3C)cnc21 (stereo not drawn) [Example 315, N-(5-(8-ethyl-7-oxo-1,2,4,5,5a,6,7,8-octahydropyrido[3′, 2′:2,3][1,4]diazepino [1,7-d][1,4]oxazepin-11-yl)-6-methylpyridin-3-yl)-3-(trifluoromethyl) benzamide] | 1.7 |
| CCN1C(=O)CC2CCOCCN2c2cc(-c3cc(NC(=O)c4ccnc(C(F)(F)F)c4)ccc3C)cnc21 (stereo not drawn) [Example 316, N-(3-(8-ethyl-7-oxo-1,2,4,5,5a,6,7,8-octahydropyrido[3′, 2′:2,3][1,4]diazepino [1,7-d][1,4]oxazepin-11-yl)-4-methylphenyl)-2-(trifluoromethyl) isonicotinamide] | 0.8 |
| Cc1ccc(NC(=O)c2ccnc(C(F)(F)F)c2)cc1-c1cnc2c(c1)N1CCOCCC1CC(=O)N2CCO (stereo not drawn) [Example 318, N-(3-(8-(2-hydroxyethyl)-7-oxo-1,2,4,5,5a,6,7,8-octahydropyrido[3′, 2′:2,3][1,4]diazepino [1,7-d][1,4]oxazepin-11-yl)-4-methylphenyl)-2-(trifluoromethyl) isonicotinamide] | 1.4 |
| Cc1ncc(NC(=O)c2cccc(C(F)(F)F)c2)cc1-c1cnc2c(c1)N1CCOCCC1CC(=O)N2CCO (stereo not drawn) [Example 319, N-(5-(8-(2-hydroxyethyl)-7-oxo-1,2,4,5,5a,6,7,8-octahydropyrido[3′, 2′:2,3][1,4]diazepino [1,7-d][1,4]oxazepin-11-yl)-6-methylpyridin-3-yl)-3-(trifluoromethyl) benzamide] | 2.2 |
| Cc1ccc(NC(=O)c2ccnc(C(F)(F)F)c2F)cc1-c1cnc2c(c1)N1CCOC[C@H]1CC(=O)N2CCO [Example 322, (R)-3-fluoro-N-(3-(7-(2-hydroxyethyl)-6-oxo-2,4,4a,5,6,7-hexahydro-1H-[1,4]oxazino[4,3-d]pyrido[2,3-b][1,4]diazepin-10-yl)-4-methylphenyl)-2-(trifluoromethyl) isonicotinamide] | 0.3 |
| Cc1ccc(NC(=O)c2cnnc(C(F)(F)F)c2)cc1-c1cnc2c(c1)N1CCOC[C@H]1CC(=O)N2CCO [Example 323, (R)-N-(3-(7-(2-hydroxyethyl)-6-oxo-2,4,4a,5,6,7-hexahydro-1H-[1,4]oxazino[4,3-d]pyrido[2,3-b][1,4]diazepin-10-yl)-4-methylphenyl)-6-(trifluoromethyl) pyridazine-4-carboxamide] | 0.2 |
| Cc1ccc(NC(=O)c2cnnc(C(F)(F)F)c2)cc1-c1cnc2c(c1)N1CCOC[C@@H]1CC(=O)N2CCO [Example 324, (S)-N-(3-(7-(2-hydroxyethyl)-6-oxo-2,4,4a,5,6,7-hexahydro-1H-[1,4]oxazino[4,3-d]pyrido[2,3-b][1,4]diazepin-10-yl)-4-methylphenyl)-6-(trifluoromethyl) pyridazine-4-carboxamide] | 0.8 |
| CCN1C(=O)C[C@@H]2COCCN2c2cc(-c3cc(NC(=O)c4cnnc(C(F)(F)F)c4)ccc3C)cnc21 [Example 325, (R)-N-(3-(7-ethyl-6-oxo-2,4,4a,5,6,7-hexahydro-1H-[1,4]oxazino[4,3-d]pyrido[2,3-b][1,4]diazepin-10-yl)-4-methylphenyl)-6-(trifluoromethyl) pyridazine-4-carboxamide] | 0.1 |
| CCN1C(=O)C[C@H]2COCCN2c2cc(-c3cc(NC(=O)c4cnnc(C(F)(F)F)c4)ccc3C)cnc21 [Example 326, (S)-N-(3-(7-ethyl-6-oxo-2,4,4a,5,6,7-hexahydro-1H-[1,4]oxazino[4,3-d]pyrido[2,3-b][1,4]diazepin-10-yl)-4-methylphenyl)-6-(trifluoromethyl) pyridazine-4-carboxamide] | 0.5 |
| CCN1C(=O)C[C@@H]2COCCN2c2cc(-c3cc(NC(=O)c4ccnc(C(F)(F)F)c4F)ccc3C)cnc21 [Example 327, (R)-N-(3-(7-ethyl-6-oxo-2,4,4a,5,6,7-hexahydro-1H-[1,4]oxazino[4,3-d]pyrido[2,3-b][1,4]diazepin-10-yl)-4-methylphenyl)-3-fluoro-2-(trifluoromethyl) isonicotinamide] | 0.3 |
| CCN1C(=O)C[C@@H]2COCCN2c2cc(-c3cc(NC(=O)c4cncc(C(F)(F)F)c4)ccc3C)cnc21 [Example 328, (R)-N-(3-(7-ethyl-6-oxo-2,4,4a,5,6,7-hexahydro-1H-[1,4]oxazino[4,3-d]pyrido[2,3-b][1,4]diazepin-10-yl)-4-methylphenyl)-5-(trifluoromethyl) nicotinamide] | 0.1 |
| Cc1ccc(NC(=O)c2cncc(C(F)(F)F)c2)cc1-c1cnc2c(c1)N1CCOC[C@H]1CC(=O)N2CCO [Example 329, (R)-N-(3-(7-(2-hydroxyethyl)-6-oxo-2,4,4a,5,6,7-hexahydro-1H-[1,4]oxazino[4,3-d]pyrido[2,3-b][1,4]diazepin-10-yl)-4-methylphenyl)-5-(trifluoromethyl) nicotinamide] | 0.2 |
| Cc1ccc(NC(=O)c2ccnc(C(F)(F)F)c2)cc1-c1cnc2c(c1)C1CCOCC1OC(=O)N2CCO (stereo not drawn) [Example 330, N-(3-((4,11b-cis)-7-(2-hydroxyethyl)-6-oxo-2,4,4a,6,7,11b-hexahydro-1H-pyrano[4,3-f]pyrido[2,3-d][1,3]oxazepin-10-yl)-4-methylphenyl)-2-(trifluoromethyl) isonicotinamide] | 3.1 |
| Cc1ccc(NC(=O)c2ccnc(C(F)(F)F)c2F)cc1-c1cnc2c(c1)C1CCOCC1OC(=O)N2CCO (stereo not drawn) [Example 331, 3-fluoro-N-(3-((4,11b-cis)-7-(2-hydroxyethyl)-6-oxo-2,4,4a,6,7,11b-hexahydro-1H-pyrano[4,3-f]pyrido[2,3-d][1,3]oxazepin-10-yl)-4-methylphenyl)-2-(trifluoromethyl) isonicotinamide] | 6.6 |

— patent US10377770B2 (Novartis AG, priority 2015, dated 2019)
